This is an account of results in ChEMBL document CHEMBL5705903, “A DNA Hypomethylation Signature Predicts Antitumor Activity of LSD1 Inhibitors in SCLC” (Cancer Cell, 2015).

Each structure is given as a SMILES string. The source made the active and inactive calls. No cut-off for these calls is given here.

The nature of series [1]: Cmax in mouse at 5.5 mg/kg, ip by HPLC/MS/MS analysis. Particulars: in vivo. It counts as ADME, organism-based.
In series [2] the test system is SHP77. Kind of series: Effect on NSE gene expression in human SHP77 cells at 1 uM measured after 4 to 7 days by qRT-PCR analysis. The following applies: time 4-7 day. It counts as functional, cell-based.
A short description of series [3]: Effect on cleaved PARP level in human NCI-H146 cells assessed as fold change at 1000 nM measured after 7 days by Western blot analysis (reference value: 1.00). The format is functional. The following applies: time 7 day.
Series [4] can be described thus: Effect on cleaved PARP level in human NCI-H1417 cells assessed as relative expression at 100 nM measured after 10 days by Western blot analysis (reference value: 0.19). Particulars: time 10 day. It counts as functional.
A short description of series [5]: Effect on cleaved PARP level in human NCI-H2171 cells assessed as relative expression at 10 nM measured after 7 days by Western blot analysis (reference value: 0.02). It counts as functional. The following applies: time 7 day.
Series [6] in a line: Effect on cleaved PARP level in human NCI-H510 cells assessed as fold change at 100 nM measured after 14 days by Western blot analysis (reference value: 1.00). It counts as functional, NCI-H510A. Particulars: time 14 day.
A short description of series [7]: Effect on cleaved PARP level in human NCI-H524 cells assessed as fold change at 100 nM measured after 14 days by Western blot analysis (reference value: 1.00). It counts as functional. The following applies: time 14 day. (Immunoblotting shows a protein as a band on a membrane.)
A short description of series [8]: Effect on cleaved PARP level in human NCI-H510 cells assessed as fold change at 1000 nM measured after 7 days by Western blot analysis (reference value: 1.00). The format is functional, NCI-H510A. The following applies: time 7 day.
The test system of series [9] is NCI-H526. Kind of series: In vivo inhibition of LSD1 in human NCI-H526 cells xenografted in nude mouse assessed as change in ZEB1 gene expression measured after 24 hrs post single administration by qRT-PCR analysis. The format is functional, organism-based. Particulars: dose 0.06-135 mg/kg. (In general: A xenograft is tissue or cells of one species grown in another, often human tumour cells in immunodeficient mice.)

Series [10] deals with NCI-H526. Kind of series: Upregulation of LSD1 signal enrichment at super enhancers in human NCI-H526 cells at 1 uM. It counts as functional, cell-based.
The test system of series [11] is NCI-H1417. In words: Effect on cell cycle in human NCI-H1417 cells assessed as cell accumulation at […] phase upto 1000 nM measured for 7 to 14 days by flow cytometry. It counts as functional, cell-based. The following applies: time 7-14 day. (Flow cytometry measures light scatter and fluorescence of single cells or particles in a stream.)
A short description of series [12]: Effect on cleaved PARP level in human NCI-H526 cells assessed as relative expression at 10 nM measured after 14 days by Western blot analysis (reference value: 0.66). It counts as functional. The following applies: time 14 day.
Series [13] is described as follows: Effect on cleaved PARP level in human NCI-H889 cells assessed as relative expression at 100 nM measured after 7 days by Western blot analysis (reference value: 0.34). It counts as functional. The following applies: time 7 day.
Series [14] has as its system NCI-H69. Kind of series: Antitumor activity against human NCI-H69 cells xenografted in nude mouse assessed as tumor growth inhibition at 1.5 mg/kg, po administered daily measured twice weekly relative to control. It counts as functional. Particulars: read-out: TGI.
The nature of series [15]: Effect on cleaved PARP level in human NCI-H1417 cells assessed as fold change at 10 nM measured after 7 days by Western blot analysis (reference value: 1.00). The format is functional. The following applies: time 7 day.
Series [16] in a line: Effect on cleaved PARP level in human NCI-H69 cells assessed as relative expression at 100 nM measured after 10 days by Western blot analysis (reference value: 0.03). The format is functional. Particulars: time 10 day.
Series [17] deals with NCI-H526. In words: In vivo inhibition of LSD1 in human NCI-H526 cells xenografted in nude mouse assessed as change in KIAA1644 gene expression measured after 24 hrs post single administration by qRT-PCR analysis. Particulars: dose 0.06-135 mg/kg. It counts as functional, organism-based.
Series [18] can be described thus: Effect on cleaved PARP level in human NCI-H524 cells assessed as relative expression at 100 nM measured after 10 days by Western blot analysis (reference value: 0.95). It counts as functional. Particulars: time 10 day.
Series [19] has as its system NCI-H146. Kind of series: Effect on SYP gene expression in human NCI-H146 cells at 1 uM measured after 4 days by qRT-PCR analysis. The format is functional, cell-based. Particulars: time 4.0 day.
The nature of series [20]: Effect on cleaved PARP level in human NCI-H1417 cells assessed as relative expression at 10 nM measured after 14 days by Western blot analysis (reference value: 0.38). The format is functional. The following applies: time 14 day.
Series [21] is described as follows: Effect on cleaved PARP level in human NCI-H889 cells assessed as relative expression at 100 nM measured after 10 days by Western blot analysis (reference value: 0.33). It counts as functional. The following applies: time 10 day.
The test system of series [22] is NCI-H526. In words: Effect on global H3K4me1 level in human NCI-H526 cells at 10 to 1000 nM measured after 24 hrs by Western blot analysis. The format is functional, cell-based. Particulars: dose 10-1000 nM.
Series [23] in a line: Effect on cleaved PARP level in human NCI-H524 cells assessed as relative expression at 1000 nM measured after 7 days by Western blot analysis (reference value: 0.63). It counts as functional. Particulars: time 7 day.
Series [24] can be described thus: Effect on cleaved PARP level in human COLO-668 cells assessed as fold change at 1000 nM measured after 7 days by Western blot analysis (reference value: 1.00). It counts as functional. Particulars: time 7 day.
A short description of series [25]: Effect on cleaved PARP level in human NCI-H2171 cells assessed as fold change at 1000 nM measured after 7 days by Western blot analysis (reference value: 1.00). The format is functional. The following applies: time 7 day.
Series [26] addresses Lysine-specific histone demethylase 1A (Homo sapiens, UniProt O60341). Kind of series: Binding affinity to LSD1 (unknown origin) using H3K4me2 as substrate assessed as apparent inhibition constant by HRP-coupled amplex red assay. The following applies: read-out: Ki(app).
Series [27] in a line: AUC (0 to infinity) in mouse blood at 5 mg/kg, po by HPLC/MS/MS analysis. The format is ADME, organism-based.
For series [28], the system named is NCI-H1417. Kind of series: Effect on caspase-3 level in human NCI-H1417 cells upto 1000 nM measured after 10 days by Western blot analysis. It counts as functional, cell-based. The following applies: time 10.0 day.
Series [29] in a line: Effect on cleaved PARP level in human COLO-668 cells assessed as fold change at 10 nM measured after 10 days by Western blot analysis (reference value: 1.00). The format is functional. The following applies: time 10 day.
Series [30] can be described thus: Effect on cleaved PARP level in human NCI-H510 cells assessed as fold change at 1000 nM measured after 10 days by Western blot analysis (reference value: 1.00). The format is functional, NCI-H510A. Particulars: time 10 day.
The nature of series [31]: Toxicity in rat assessed as neutrophenia measured for 28 days. The following applies: in vivo, 672 h, time 28 day.
Series [32] in a line: Toxicity in rat assessed as effect on ECG measured for 28 days. The following applies: in vivo, 672 h, time 28 day.
Series [33] is described as follows: Effect on cleaved PARP level in human NCI-H1694 cells assessed as relative expression at 10 nM measured after 10 days by Western blot analysis (reference value: 0.31). The format is functional. Particulars: time 10 day.
Series [34] can be described thus: Toxicity in dog assessed as morbidity measured for 28 days. More on the design: species or system Canis lupus familiaris. Particulars: in vivo, 672 h, time 28 day.
Series [35] relates to NCI-H526. Kind of series: In vivo inhibition of LSD1 in human NCI-H526 cells xenografted in nude mouse assessed as change in UMODL1 gene expression administrated daily for 5 days by qRT-PCR analysis. The format is functional, organism-based. Particulars: dose 0.02-135 mg/kg, time 5.0 day.
Series [36] deals with NCI-H1417. Kind of series: Antitumor activity against human NCI-H1417 cells xenografted in nude mouse assessed as decrease in GRP expression at 1.5 mg/kg administrated daily by qRT-PCR analysis. The following applies: time 1-14 day, TDE = time-dependent effect. The format is functional, organism-based.
Series [37] has as its system NCI-H1417. Kind of series: In vivo inhibition of LSD1 in human NCI-H1417 cells xenografted in nude mouse assessed as change in SNTB1 gene expression measured after 24 hrs post single administration by qRT-PCR analysis. The format is functional, organism-based. Particulars: dose 0.02-135 mg/kg.

With `c1ccc([C@@H]2C[C@H]2NC2CCNCC2)cc1`, the concentration in series [1] peaked (Cmax) at 466 ng/mL.

On to `O=C(O)c1ccc(CN2CCC(CN[C@@H]3C[C@H]3c3ccccc3)CC2)cc1` [GSK2879552], for which the result in series [2], in series [11], in series [19], in series [22] and in [28] was inactive. The “fold change (FC)” value in series [3] turned out to be 1.12; in series [6], 2.92; in series [7], 0.74; in series [8], 2.06; in series [15], 1.53; in series [24], 0.95. The figures for the “fold change (FC)” value in series [25], in [29] and in series [30] were 2.18, 0.75 and 12.67, respectively. The Activity in [4] was determined as 0.4; in series [5] it was 0.03; in series [12] it was 0.48; in [13], 0.43; in [16] it was 0.06; in series [18], 0.67. Moreover, the Activity in [20] was 0.31; in [21], 0.74; in series [23], 1.12; in series [31] it was “Toxic”; in [32], “Toxic”; in series [33], 0.27. In addition, the Activity result was “Toxic” in [34] and “Tde” in series [36]. Further, the inhibition entry in [9], in [17], in [35] and in [37] was “Dose-Dependent Effect” in each case. The outcome in series [10] was Active. Also, the inhibition in vivo at 1.5 mg/kg in series [14] worked out at 49%. In addition, the Ki in [26] was found to be 1700 nM. The compound further yielded an AUC(0-inf) in series [27] of 903 ng·h/mL.

As usually defined, the Cmax is the highest concentration seen after dosing. One may read the AUC(0-inf) as the area under the concentration-time curve extrapolated to infinity.
